From US10544143B2, “4-azaindole compounds” (BRISTOL-MYERS SQUIBB COMPANY, priority 2017, dated 2020)

Key:
human TLR9 = human TLR9 (Homo sapiens (Human), UniProt Q9NR96); experiment: TLR9 inhibition reporter assay (HEK-Blue SEAP); settings: read-out: TLR9 IC50; HEK-Blue cells overexpressing human TLR9, ODN2006 5 nM stimulation, SEAP reporter;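 note: SEAP driven by an IFN-β minimal promoter with NF-κB and AP-1 sites, read after 22 h, compounds dosed 0.05 nM–50 µM, inhibition scaled between agonist plus DMSO and reference-inhibitor wells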
Sequence of human TLR9 (Q9NR96 26-1032): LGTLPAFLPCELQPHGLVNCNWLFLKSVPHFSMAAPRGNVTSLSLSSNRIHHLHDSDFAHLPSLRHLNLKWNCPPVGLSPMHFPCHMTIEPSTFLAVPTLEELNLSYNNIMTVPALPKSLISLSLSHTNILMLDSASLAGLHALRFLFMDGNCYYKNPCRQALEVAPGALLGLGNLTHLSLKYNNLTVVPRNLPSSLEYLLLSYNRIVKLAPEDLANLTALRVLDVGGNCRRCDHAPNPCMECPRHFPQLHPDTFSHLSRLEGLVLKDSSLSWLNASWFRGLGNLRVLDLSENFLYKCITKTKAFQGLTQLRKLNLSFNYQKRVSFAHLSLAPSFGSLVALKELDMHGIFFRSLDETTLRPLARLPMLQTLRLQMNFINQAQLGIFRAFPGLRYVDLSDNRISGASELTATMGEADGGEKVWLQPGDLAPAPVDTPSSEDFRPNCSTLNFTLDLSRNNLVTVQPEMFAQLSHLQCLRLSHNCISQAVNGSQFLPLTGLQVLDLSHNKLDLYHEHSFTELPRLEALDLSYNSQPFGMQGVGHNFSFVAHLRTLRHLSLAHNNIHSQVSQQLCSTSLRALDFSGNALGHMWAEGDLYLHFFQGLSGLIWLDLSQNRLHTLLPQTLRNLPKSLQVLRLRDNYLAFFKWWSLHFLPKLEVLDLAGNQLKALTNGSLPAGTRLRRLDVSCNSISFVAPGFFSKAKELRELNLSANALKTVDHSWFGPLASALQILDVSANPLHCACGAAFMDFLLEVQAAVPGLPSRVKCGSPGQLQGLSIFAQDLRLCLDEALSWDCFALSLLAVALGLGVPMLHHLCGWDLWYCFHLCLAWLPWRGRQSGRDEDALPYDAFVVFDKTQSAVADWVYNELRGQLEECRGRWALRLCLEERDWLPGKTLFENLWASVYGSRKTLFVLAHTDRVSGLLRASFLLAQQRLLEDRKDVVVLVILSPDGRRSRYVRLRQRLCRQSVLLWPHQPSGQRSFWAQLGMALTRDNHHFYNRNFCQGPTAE

human TLR7 = human TLR7 (Homo sapiens (Human), UniProt Q9NYK1); experiment: TLR7 inhibition reporter assay (HEK-Blue SEAP); format: cell-based; settings: HEK-Blue cells overexpressing human TLR7, gardiquimod 7.5 μM stimulation, SEAP reporter
Sequence of human TLR7 (Q9NYK1 27-1049): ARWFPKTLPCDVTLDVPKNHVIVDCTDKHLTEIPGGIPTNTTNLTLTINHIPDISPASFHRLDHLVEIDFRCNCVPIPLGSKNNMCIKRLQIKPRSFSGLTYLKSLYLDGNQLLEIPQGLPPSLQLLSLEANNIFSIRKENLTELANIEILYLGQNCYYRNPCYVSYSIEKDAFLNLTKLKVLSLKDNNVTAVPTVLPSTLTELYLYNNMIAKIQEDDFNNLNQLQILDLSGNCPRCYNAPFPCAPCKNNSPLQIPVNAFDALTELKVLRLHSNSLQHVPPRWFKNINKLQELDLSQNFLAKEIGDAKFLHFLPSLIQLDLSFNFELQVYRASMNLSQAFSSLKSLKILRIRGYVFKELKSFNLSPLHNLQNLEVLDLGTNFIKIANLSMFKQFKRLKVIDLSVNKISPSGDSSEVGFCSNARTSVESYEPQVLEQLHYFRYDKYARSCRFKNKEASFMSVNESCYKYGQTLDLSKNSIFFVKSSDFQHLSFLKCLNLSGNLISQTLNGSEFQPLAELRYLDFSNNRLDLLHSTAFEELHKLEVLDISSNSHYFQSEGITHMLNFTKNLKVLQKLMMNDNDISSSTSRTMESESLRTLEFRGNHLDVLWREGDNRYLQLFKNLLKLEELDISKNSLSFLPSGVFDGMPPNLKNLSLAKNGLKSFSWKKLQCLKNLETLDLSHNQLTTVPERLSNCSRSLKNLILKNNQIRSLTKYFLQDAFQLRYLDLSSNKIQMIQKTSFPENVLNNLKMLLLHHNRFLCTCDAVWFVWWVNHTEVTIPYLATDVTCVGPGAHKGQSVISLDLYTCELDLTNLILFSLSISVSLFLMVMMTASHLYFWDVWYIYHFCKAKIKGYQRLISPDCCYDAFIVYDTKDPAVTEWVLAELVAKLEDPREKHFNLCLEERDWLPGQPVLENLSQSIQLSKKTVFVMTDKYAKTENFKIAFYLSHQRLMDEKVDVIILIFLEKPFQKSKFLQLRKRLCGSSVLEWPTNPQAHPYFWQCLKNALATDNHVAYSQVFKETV

human TLR8 = human TLR8 (Homo sapiens (Human), UniProt Q9NR97); experiment: TLR8 inhibition reporter assay (HEK-Blue SEAP); settings: read-out: TLR8 IC50; HEK-Blue cells overexpressing human TLR8, R848 15.9 μM stimulation, SEAP reporter;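 note: SEAP driven by IFN-β minimal promoter carrying NF-κB and AP-1 sites, compounds dosed 0.05 nM to 50 µM for 22 h, inhibition scaled between agonist-plus-DMSO and reference-inhibitor wells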
Sequence of human TLR8 (Q9NR97 27-1041): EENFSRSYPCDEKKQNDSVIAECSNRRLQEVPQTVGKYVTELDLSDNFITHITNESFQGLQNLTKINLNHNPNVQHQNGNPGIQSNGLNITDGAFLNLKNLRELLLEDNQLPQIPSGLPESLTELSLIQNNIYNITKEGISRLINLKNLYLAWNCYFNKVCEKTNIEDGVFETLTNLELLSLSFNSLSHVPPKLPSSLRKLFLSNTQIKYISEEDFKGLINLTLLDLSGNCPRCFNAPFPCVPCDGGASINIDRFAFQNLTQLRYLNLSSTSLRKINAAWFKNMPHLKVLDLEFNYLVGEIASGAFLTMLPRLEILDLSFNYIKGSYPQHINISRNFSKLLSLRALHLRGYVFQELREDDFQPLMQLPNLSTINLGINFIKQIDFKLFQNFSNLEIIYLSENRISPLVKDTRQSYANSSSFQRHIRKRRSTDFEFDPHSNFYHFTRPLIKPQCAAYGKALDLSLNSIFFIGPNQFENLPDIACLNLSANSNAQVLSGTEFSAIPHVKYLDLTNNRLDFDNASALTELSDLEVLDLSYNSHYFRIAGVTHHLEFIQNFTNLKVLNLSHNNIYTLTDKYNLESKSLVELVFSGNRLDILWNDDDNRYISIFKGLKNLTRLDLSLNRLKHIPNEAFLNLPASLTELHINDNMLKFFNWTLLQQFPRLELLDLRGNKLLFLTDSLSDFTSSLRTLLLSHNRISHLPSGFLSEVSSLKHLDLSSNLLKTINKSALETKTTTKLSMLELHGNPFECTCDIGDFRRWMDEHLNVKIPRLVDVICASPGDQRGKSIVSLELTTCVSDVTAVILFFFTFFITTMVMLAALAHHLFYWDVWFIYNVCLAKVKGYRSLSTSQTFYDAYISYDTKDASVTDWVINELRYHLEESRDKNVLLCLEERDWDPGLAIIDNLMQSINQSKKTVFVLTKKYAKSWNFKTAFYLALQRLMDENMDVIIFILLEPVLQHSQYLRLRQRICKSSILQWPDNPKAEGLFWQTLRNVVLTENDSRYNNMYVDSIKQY

Row | SMILES | IC50 (human TLR9) [nM] | IC50 (human TLR7) [nM] | IC50 (human TLR8) [nM]
1 | CC(C)c1c(-c2cc(CO)c3ncnn3c2)[nH]c2ccc(C3CCC(NCc4c[nH]nn4)CC3)nc12 (stereo not drawn) [Example 221] | 435 | 3.7 | 13
2 | Cc1cnc(CNC2CCC(c3ccc4[nH]c(-c5cc(CO)c6ncnn6c5)c(C(C)C)c4n3)CC2)cn1 (stereo not drawn) [Example 224] | 718 | 1.5 | 4.2
3 | COc1cc(-c2[nH]c3ccc(C4CCC(N(C)CC(N)=O)CC4)nc3c2C(C)C)cn2ncnc12 (stereo not drawn) [Example 225] | 3360 | 4 | 35
4 | COc1cc(-c2[nH]c3ccc(C4CCC(N(C)CC(=O)N(C)C)CC4)nc3c2C(C)C)cn2ncnc12 (stereo not drawn) [Example 226] | 1790 | 2.7 | 14
5 | CNC(=O)CN(C)C1CCC(c2ccc3[nH]c(-c4cc(OC)c5ncnn5c4)c(C(C)C)c3n2)CC1 (stereo not drawn) [Example 227] | 926 | 2 | 7.7
6 | CNC(=O)CN(C)C1CCC(c2ccc3[nH]c(-c4cc(OC)c5ncnn5c4)c(C(C)C)c3n2)CC1 (stereo not drawn) [Example 228] | 2390 | 3.3 | 23
7 | COCc1cc(-c2[nH]c3ccc(C4CCC(NC5COC5)CC4)nc3c2C(C)C)cn2ncnc12 (stereo not drawn) [Example 229] | 1710 | 19 | 18
8 | COCc1cc(-c2[nH]c3ccc(C4CCC(NCC(=O)N(C)C)CC4)nc3c2C(C)C)cn2ncnc12 (stereo not drawn) [Example 230] | 2460 | 38 | 33
9 | COc1cc(-c2[nH]c3ccc(C4CCC(NCC(=O)N(C)C)CC4)nc3c2C(C)C)cn2ncnc12 (stereo not drawn) [Example 231] | 365 | 0.61 | 3
10 | COc1cc(-c2[nH]c3ccc(C4CCC(NCC(=O)N(C)C)CC4)nc3c2C(C)C)cn2ncnc12 (stereo not drawn) [Example 232] | 484 | 3 | 9.8
11 | Cc1c(-c2[nH]c3ccc(C4CCC(NC5COC5)CC4)nc3c2C(C)C)cn2cnnc2c1C (stereo not drawn) [Example 233] | 2660 | 11 | 24
12 | Cc1c(-c2[nH]c3ccc(C4CCC(NC5COC5)CC4)nc3c2C(C)C)cn2cnnc2c1C (stereo not drawn) [Example 234] | 435 | 1.6 | 5
13 | CC(C)c1c(-c2cc(CO)c3ncnn3c2)[nH]c2ccc(C3CCC(NC4COC4)CC3)nc12 (stereo not drawn) [Example 235] | 929 | 1 | 2
14 | CC(C)c1c(-c2cn(C)c3ncccc23)[nH]c2ccc(C3CCC(NCC4(S(C)(=O)=O)CC4)CC3)nc12 (stereo not drawn) [Example 236] | 376 | 3.9 | 2.8
15 | Cc1c(-c2[nH]c3ccc(C4CCC(N(C5CC5)C5COC5)CC4)nc3c2C(C)C)cn2cnnc2c1C (stereo not drawn) [Example 237] | 18200 | 20 | 19
16 | CC(C)c1c(-c2cn(C)c3ncccc23)[nH]c2ccc(C3CCC(NCC4(S(C)(=O)=O)CC4)CC3)nc12 (stereo not drawn) [Example 238] | 297 | 0.71 | 0.97
17 | Cc1c(-c2[nH]c3ccc(C4CCC(N(C5CC5)C5COC5)CC4)nc3c2C(C)C)cn2cnnc2c1C (stereo not drawn) [Example 239] | > 50000 | 106 | 181
18 | COc1cc(-c2[nH]c3ccc(C4CCC(N(C)C5COC5)CC4)nc3c2C(C)C)cn2ncnc12 (stereo not drawn) [Example 240] | 5080 | 5.4 | 16
19 | COc1cc(-c2[nH]c3ccc(C4CCC(N(C)CCS(C)(=O)=O)CC4)nc3c2C(C)C)cn2ncnc12 (stereo not drawn) [Example 241] | 1750 | 2 | 2.9
20 | COc1cc(-c2[nH]c3ccc(C4CCC(N(C)CCS(C)(=O)=O)CC4)nc3c2C(C)C)cn2ncnc12 (stereo not drawn) [Example 242] | 2410 | 1.5 | 15
21 | CC(C)c1c(-c2cn(C)c3ncccc23)[nH]c2ccc(C3CCC(NC4CC4)CC3)nc12 (stereo not drawn) [Example 243] | 999 | 7.6 | 9.5
22 | COc1cc(-c2[nH]c3ccc(C4CCC(N5CC6(COC6)C5)CC4)nc3c2C(C)C)cn2ncnc12 (stereo not drawn) [Example 244] | 2350 | 1.6 | 8.2
23 | CC(C)c1c(-c2cn(C)c3ncccc23)[nH]c2ccc(C3CCC(N4CC5(COC5)C4)CC3)nc12 (stereo not drawn) [Example 245] | 343 | 2.7 | 4.7
24 | CC(C)c1c(-c2cc(CO)c3ncnn3c2)[nH]c2ccc(C3CCC(N(C)C4COC4)CC3)nc12 (stereo not drawn) [Example 246] | 4280 | 1.9 | 2.6
25 | CC(C)c1c(-c2cn(C)c3ncccc23)[nH]c2ccc(C3CCC(NCCS(C)(=O)=O)CC3)nc12 (stereo not drawn) [Example 247] | 825 | 1.2 | 1.2

Row | SMILES | IC50 (human TLR9) [nM] | IC50 (human TLR7) [nM] | IC50 (human TLR8) [nM]
26 | COc1cc(-c2[nH]c3ccc(C4CCC(N5CC6(C5)CS(=O)(=O)C6)CC4)nc3c2C(C)C)cn2ncnc12 (stereo not drawn) [Example 248] | 1780 | 1.5 | 13
27 | Cc1c(-c2[nH]c3ccc(C4CCC(N(C)C5COC5)CC4)nc3c2C(C)C)cn(C)c(=O)c1C (stereo not drawn) [Example 249] | 5980 | 25 | 7.3
28 | Cc1cc(-c2[nH]c3ccc(C4CCC(N(C)C5COC5)CC4)nc3c2C(C)C)cn(C)c1=O (stereo not drawn) [Example 250] | 13700 | 26 | 57
29 | CC(C)c1c(-c2cn(C)c3ncccc23)[nH]c2ccc(C3CCC(NCCS(C)(=O)=O)CC3)nc12 (stereo not drawn) [Example 251] | 1750 | 8.6 | 13
30 | CC(C)c1c(-c2cc(CO)c3ncnn3c2)[nH]c2ccc(C3CCC(N(C)C4COC4)CC3)nc12 (stereo not drawn) [Example 252] | 7260 | 8 | 10
31 | COc1cc(-c2[nH]c3ccc(C4CCC(N5CC6(C5)CS(=O)(=O)C6)CC4)nc3c2C(C)C)cn2ncnc12 (stereo not drawn) [Example 253] | 1150 | 0.65 | 0.72
32 | Cc1c(-c2[nH]c3ccc(C4CCC(N(C)C5COC5)CC4)nc3c2C(C)C)cn(C)c(=O)c1C (stereo not drawn) [Example 254] | 8730 | 72 | 27
33 | CC(C)c1c(-c2cn(C)c3ncccc23)[nH]c2ccc(C3CCC(N4CC5(C4)CS(=O)(=O)C5)CC3)nc12 (stereo not drawn) [Example 255] | 218 | 0.6 | 0.25
34 | CC(C)c1c(-c2cn(C)c3ncccc23)[nH]c2ccc(C3CCC(N4CC5(C4)CS(=O)(=O)C5)CC3)nc12 (stereo not drawn) [Example 256] | 335 | 1.2 | 3.7
35 | CC(C)c1c(-c2cn(CCS(C)(=O)=O)c3ncccc23)[nH]c2ccc(C3CCC(NCC(=O)N(C)C)CC3)nc12 (stereo not drawn) [Example 257] | 175 | 35 | 25
36 | CC(C)c1c(-c2cn(CCS(C)(=O)=O)c3ncccc23)[nH]c2ccc(C3CCC(N4CC5(COC5)C4)CC3)nc12 (stereo not drawn) [Example 258] | 100 | 13 | 3.5
37 | CC(C)c1c(-c2cn(CCS(C)(=O)=O)c3ncccc23)[nH]c2ccc(C3CCC(NCC4(S(C)(=O)=O)CC4)CC3)nc12 (stereo not drawn) [Example 259] | 321 | 19 | 7.1
38 | CC(C)c1c(-c2cn(CCS(C)(=O)=O)c3ncccc23)[nH]c2ccc(C3CCC(O)CC3)nc12 (stereo not drawn) [Example 260] | 10900 | 527 | 173
39 | CC(C)c1c(-c2cn(CCS(C)(=O)=O)c3ncccc23)[nH]c2ccc(C3CCC(NCC(=O)N(C)C)CC3)nc12 (stereo not drawn) [Example 261] | 381 | 262 | 90
40 | CC(C)c1c(-c2cn(CCS(C)(=O)=O)c3ncccc23)[nH]c2ccc(C3CCC(NCC4(S(C)(=O)=O)CC4)CC3)nc12 (stereo not drawn) [Example 262] | 354 | 170 | 19
41 | CNC1CCC(c2ccc3[nH]c(-c4cn(CC#N)c5ncccc45)c(C(C)C)c3n2)CC1 (stereo not drawn) [Example 263] | 338 | 6.2 | 7.6
42 | CNC1CCC(c2ccc3[nH]c(-c4cn(CCS(C)(=O)=O)c5ncccc45)c(C(C)C)c3n2)CC1 (stereo not drawn) [Example 264] | 255 | 55 | 42
43 | CC(C)c1c(-c2cn(C)c3ncccc23)[nH]c2ccc(C3CCC(NC4CCOCC4)CC3)nc12 (stereo not drawn) [Example 265] | 392 | 0.59 | 0.91
44 | CC(C)c1c(-c2cn(CCS(C)(=O)=O)c3ncccc23)[nH]c2ccc(C3CCC(NC4CCOCC4)CC3)nc12 (stereo not drawn) [Example 266] | 322 | 45 | 13
45 | CC(C)c1c(-c2cn(C)c3ncccc23)[nH]c2ccc(C3CCC(NC4CCOCC4)CC3)nc12 (stereo not drawn) [Example 267] | 453 | 1.9 | 2.6
46 | CC(C)c1c(-c2cn(CC#N)c3ncccc23)[nH]c2ccc(C3CCC(NC4CCOCC4)CC3)nc12 (stereo not drawn) [Example 268] | 578 | 94 | 32
47 | CNC1CCC(c2ccc3[nH]c(-c4cn(CCS(C)(=O)=O)c5ncccc45)c(C(C)C)c3n2)CC1 (stereo not drawn) [Example 269] | 670 | 223 | 88
48 | CNC1CCC(c2ccc3[nH]c(-c4cn(CC#N)c5ncccc45)c(C(C)C)c3n2)CC1 (stereo not drawn) [Example 270] | 322 | 38 | 28
49 | CC(C)c1c(-c2cn(CCS(C)(=O)=O)c3ncccc23)[nH]c2ccc(C3CCC(NC4CCCOC4)CC3)nc12 (stereo not drawn) [Example 271] | 228 | 120 | 40
50 | CC(C)c1c(-c2cn(CC#N)c3ncccc23)[nH]c2ccc(C3CCC(NCC(=O)N(C)C)CC3)nc12 (stereo not drawn) [Example 272] | 398 | 76 | 50
